# Measured values from patent publication US9567371B2, “Short beta-defensin-derived peptides” (Yeda Research and Development Co. Ltd., priority 2009, dated 2017).
# Peptide text beside a SMILES is read from it.
# Legend:
# pre-B-ALL G2 cells = experiment: Cell toxicity assay (propidium iodide exclusion, flow cytometry); format: cell-based, human; settings: 6 and 24 h, FIG. 1
# Procedure: FIG. 1. […] G2 cells (1×10^6/ml) were cultured in 96-well flat-bottom wells in serum free IMDEM culture medium supplemented with L-glutamine and antibiotics, for 6 and 24 h at 37° C. with the indicated peptides. Untreated cells served as a control. After treatment, cells were stained with propidium iodide (PI) and its exclusion was analyzed by flow cytometry. Data shown are the percentage of Pr (dead) cells. Vertical bars represent standard deviation of duplicate experiments. *P<0.05 compared to untreated control.
# Pre-B-ALL G2 cells and freshly isolated primary human CD3^+ T cells (1×10^6/ml) were cultured in 96-well flat-bottom wells in serum free IMDM or RPMI 1640 medium, respectively, both supplemented with L-glutamine and antibiotics, for 6 and 24 hrs at 37° C. (95% humidity, 5% CO2) with 10 μM, 100 μM or 1 mM of the peptides. Untreated cells served as a control. Cell viability was determined by propidium iodide (PI) exclusion by flow cytometry as described (Goichberg, P., et al., 2006).
# In order to test cytotoxicity of the peptides, human pre-B-ALL G2 cells and freshly isolated primary human CD3^+ T cells (1×10^6/ml) were cultured in with 10 μM, 100 μM or 1 mM of TL-1, AK-1 and cyclic TL-1, as described in the Material and Methods. All tested peptides were not toxic for G2 cells (FIG. 1) as well as for primary human T cells at 10 μM and 100 μM. Even in the highest concentration, 1 mM, the peptides killed only 8-12% and 14-16% cells treated for 6 and 24 hrs, respectively, indicating a very low cytotoxicity of the peptides.
# C57BL/6 mice = experiment: Mobilization assay: hematopoietic progenitor cells (CFU from PB MNC); format: in vivo, mouse
# Procedure: FIG. 3. Dose-response effect of TL-1 and AK-1 on mobilization of hematopoietic progenitor cells to peripheral blood. C57BL/6 mice were s.c. injected with 1, 5 or 10 mg/kg of TL-1 or AK-1. Control mice were injected with PBS. After 1-1.5 h, mice were sacrificed, peripheral blood mononuclear cells (PB MNC) were separated by Ficoll, seeded into the methylcellulose, and the number of colony-forming units (CFU) was estimated. Data shown are the number of CFU per 2×10^5 seeded PB MNC cells. Vertical bars represent standard deviation of duplicate experiments. *P<0.05 compared to control.
# FIG. 5. TL-1 synergizes with G-CSF to mobilize hematopoietic progenitor cells to peripheral blood. C57BL/6 mice were s.c. injected with 5 mg/kg of AMD3100 (AMD), TL-1, AK-1, TL-1+AMD3100, or AK-1+AMD3100. Other mice were injected with G-CSF, alone or with TL-1 or AMD3100. Control mice were injected with PBS. After 1-1.5 h, mice were sacrificed, peripheral blood mononuclear cells (PB MNC) were separated by Ficoll, seeded into the methylcellulose, and the number of colony-forming units (CFU) was estimated. Data shown are the number of CFU per 2×10^5 seeded PB MNC cells. Vertical bars represent standard deviation of duplicate experiments. *P<0.05 compared to control.
# C57BL/6 mice were injected s.c. with PBS (control), 5 mg/kg AMD3100, or one of the peptides TL-1, cyclic TL-1 and AK-1, at various doses. Another group of mice was s.c. injected with 5 mg/kg AMD3100 together with TL-1, or cyclic TL-1, or AK-1 (all peptides at 5 mg/kg), 1-1.5 hr before sacrifice. An additional group of mice was s.c. injected with-G-CSF at a dose of 5 μg/mouse once a day for 5 days. Mice were sacrificed 4 hrs post last G-CSF injection; 1-1.5 before sacrifice, mice were injected with TL-1, cyclic TL-1 or AK-1, all at 5 mg/kg. Peripheral blood (PB) was collected from mice by cardiac puncture into heparin containing tubes and the number of white blood cells (WBC) per 1 mL of blood was calculated. The tubes were centrifuged, plasma was collected and kept at −20° C. until tested. In order to evaluate the number of progenitor cells, PB mononuclear cells were isolated using Ficoll gradient centrifugation, and seeded (2×10^5 cells/plate) in methylcellulose with cytokines as described (Spiegel, A., et al., 2004, Goichberg, P., et al., 2006). Colonies, reflecting colony-forming units (CFU), were scored after 7 days.
# In the same experiments, blood mononuclear cells were collected and tested for the presence of colony-forming cells reflecting the number of HPC.
# SDF-1 = SDF-1 plasma levels in injected mice (ELISA); format: in vivo, mouse; settings: 5 mg/kg s.c., compared with mice injected with PBS
# Procedure: SDF-1 levels in tested samples were determined by ELISA as described (Kalinkovich, A., et al., 2006) where the K15C monoclonal antibodies (mAb, INRA, Paris, France) recognizing the first three amino acids of SDF-1 were utilized as a capture Ab (10 μg/mL) in order to measure levels of intact, non-cleaved SDF-1. Levels of basic FGF (bFGF) and HGF in tested samples were determined by using corresponding capture mAbs and polyclonal biotynilated Abs (R&D Systems) as recommended by the manufacturer. In order to examine SDF-1, bFGF and HGF levels in cell supernatants, MS-5, MBA-15 and MG-63 cells were seeded in 24-well Costar wells and cultivated in RPMI 1640 or αMEM Eagle medium, respectively, with 10% FCS. When the cells reached confluence, the medium was changed to serum free medium and cells were cultivated for additional 6 hrs in the presence of various concentrations of the peptides. Medium samples were collected and centrifuged 10 min at 6000×g at 4° C. to remove cell debris. Supernatants were collected and kept at −70° C. until tested.
structure (smiles),measurement,setting,value
"N=C(N)NCCC[C@@H]1NC(=O)CNC(=O)[C@H](CCCNC(=N)N)NC(=O)[C@H](CCCCN)NC(=O)[C@H](CCCCN)NC(=O)[C@H](CCCNC(=N)N)NC(=O)[C@H](CCCNC(=N)N)NC(=O)[C@H](CS)NC(=O)[C@H](CS)NC(=O)[C@H](CCCCN)NC1=O [cyclic TL-1, 1,10-cyclo[RGRKCCRRKK]] (cyclo(CCRRKKRGRK))",cellular toxicity (percentage of PI+ dead cells),pre-B-ALL G2 cells,Low cellular toxicity
same,HPC mobilization (colony-forming cells),C57BL/6 mice; 1 mg/kg s.c.,did not induce mobilization of HPC
same,HPC mobilization in combination with AMD3100,C57BL/6 mice; 5 mg/kg each,inhibited AMD3100-induced mobilization
same,"HPC mobilization, peptide alone in the comparison/combination experiments",C57BL/6 mice; 5 mg/kg s.c.,inhibitory effect
same,HPC mobilization (colony-forming cells),"C57BL/6 mice; 5 mg/kg s.c., dose response experiments",did not induce mobilization of HPC
same,HPC mobilization (colony-forming cells),C57BL/6 mice; 10 mg/kg s.c.,inhibitory effect
same,SDF-1 plasma levels,SDF-1,did not induce increase
